The values that follow come from ChEMBL document CHEMBL4622969, “Design and biological evaluation of novel HIV-1 protease inhibitors with isopropanol as P1' ligand to enhance binding with S1' subsite” (Bioorg Med Chem, 2020).

The test system of assay [1] is Human immunodeficiency virus 1. Nature of the assay: Antiviral activity against VSV-G pseudotyped wild type HIV1 NL4-3 infected in human TZM-b1 cells at 100 nM infected with supernatants from virus-infected human SUPT1 cells after 48 hrs by luciferase assay relative to control. Type of assay: functional.
Assay [2] relates to Human immunodeficiency virus 1. Briefly: Antiviral activity against VSV-G pseudotyped darunavir-resistant HIV1 NL4-3 V32I, L33F,I54M and I84V mutant infected in human SUPT1 cells at 100 nM infected with supernatants from virus-infected human 293T cells after 48 hrs by luciferase assay relative to control. Type of assay: functional.
Assay [3] addresses Human immunodeficiency virus type 1 protease (Human immunodeficiency virus 1, UniProt Q72874). Briefly: Inhibition of HIV-1 protease expressed in Escherichia coli using Arg-Glu(EDANS)-Ser-Gln-Asn-Tyr-Pro-Ile-Val-Gln-Lys(DABCYL)-Arg as substrate preincubated for 20 to 30 mins followed by substrate addition by FRET based assay.
Assay [4] deals with Human immunodeficiency virus 1. Nature of the assay: Antiviral activity against VSV-G pseudotyped darunavir-resistant HIV1 NL4-3 harboring V32I, L33F,I54M and I84V mutant infected in human SUPT1 cells at 5 uM infected with supernatants from virus-infected human 293T cells after 48 hrs by luciferase assay relative to control. Type of assay: functional.
For assay [5], the system named is Human immunodeficiency virus 1. Briefly: Resistance index, ratio of antiviral activity against VSV-G pseudotyped wild type HIV1 NL4-3 infected in human TZM-b1 cells infected with supernatants from virus-infected human SUPT1 cells to antiviral activity against darunavir-resistant HIV1 NL4-3 infected in human SUPT1 cells infected with supernatants from virus-infected human 293T cells at 5 uM by luciferase assay. Type of assay: functional.

For assay [6], the system named is Human immunodeficiency virus 1. Nature of the assay: Antiviral activity against VSV-G pseudotyped wild type HIV1 NL4-3 infected in human TZM-b1 cells at 5 uM infected with supernatants from virus-infected human SUPT1 cells after 48 hrs by luciferase assay relative to control. Type of assay: functional.

Consider `CC(C)CN(C[C@@H](O)[C@H](Cc1ccccc1)NC(=O)O[C@H]1CO[C@H]2OCC[C@H]21)S(=O)(=O)c1ccc(N)cc1`, for which the “inhibition (INH)” value in assay [1] stood at 95%; in assay [2] it was 59%. As a reminder, the IC50 is the concentration that inhibits the measured activity by half. A higher IC50 goes with weaker potency in that assay. For `C[C@H](O)CN(C[C@@H](O)[C@H](Cc1ccccc1)NC(=O)c1cc(O)cc(O)c1)S(=O)(=O)c1ccc([N+](=O)[O-])cc1`, the IC50 in assay [3] is 37.4 nM. Consider `C[C@H](O)CN(C[C@@H](O)[C@H](Cc1ccccc1)NC(=O)c1ccccc1O)S(=O)(=O)c1ccc(C(F)(F)F)cc1`, for which, in assay [3], the IC50 was determined as 257 nM. Turning to `C[C@H](O)CN(C[C@@H](O)[C@H](Cc1ccccc1)NC(=O)c1cc(O)cc(O)c1)S(=O)(=O)c1ccc(C(F)(F)F)cc1`, the IC50 in assay [3] stood at 27.2 nM. Same read-out and setting: to `C[C@H](O)CN(C[C@@H](O)[C@H](Cc1ccccc1)NC(=O)c1ccc(O)c(O)c1)S(=O)(=O)c1ccc([N+](=O)[O-])cc1` belongs 6.56 nM; to `COc1cc(C(=O)N[C@@H](Cc2ccccc2)[C@H](O)CN(C[C@@H](C)O)S(=O)(=O)c2ccc(C(F)(F)F)cc2)cc(OC)c1O`, 11.8 nM; to `COc1cc(C(=O)N[C@@H](Cc2ccccc2)[C@H](O)CN(C[C@H](C)O)S(=O)(=O)c2ccc(C(F)(F)F)cc2)cc(OC)c1O`, 14 nM. Still for that read-out and setting: the figure for `C[C@@H](O)CN(C[C@@H](O)[C@H](Cc1ccccc1)NC(=O)c1ccccc1O)S(=O)(=O)c1ccc([N+](=O)[O-])cc1` is 9 nM; for `COc1ccc(C(=O)N[C@@H](Cc2ccccc2)[C@H](O)CN(C[C@@H](C)O)S(=O)(=O)c2ccc([N+](=O)[O-])cc2)c(O)c1` it is 625 nM. In assay [3], `COc1cc(O)c(C(=O)N[C@@H](Cc2ccccc2)[C@H](O)CN(C[C@H](C)O)S(=O)(=O)c2ccc([N+](=O)[O-])cc2)cc1OC` yielded an IC50 of 1310 nM. In assay [3], `C[C@@H](O)CN(C[C@@H](O)[C@H](Cc1ccccc1)NC(=O)c1ccc(O)c(O)c1)S(=O)(=O)c1ccc([N+](=O)[O-])cc1` yielded an IC50 of 10.3 nM. Take `C[C@@H](O)CN(C[C@@H](O)[C@H](Cc1ccccc1)NC(=O)c1ccccc1O)S(=O)(=O)c1ccc(C(F)(F)F)cc1`: in assay [3], half-maximal inhibition (IC50) required 32.1 nM.

In turn, `COc1ccc(C(=O)N[C@@H](Cc2ccccc2)[C@H](O)CN(C[C@@H](C)O)S(=O)(=O)c2ccc(C(F)(F)F)cc2)c(O)c1` registered an IC50 in assay [3] of 427 nM. Still for that read-out and setting: to `C[C@H](O)CN(C[C@@H](O)[C@H](Cc1ccccc1)NC(=O)c1ccc(O)cc1O)S(=O)(=O)c1ccc([N+](=O)[O-])cc1` belongs 47.1 nM. As for `COc1cc(C(=O)N[C@@H](Cc2ccccc2)[C@H](O)CN(C[C@@H](C)O)S(=O)(=O)c2ccc([N+](=O)[O-])cc2)cc(OC)c1O`, half-maximal inhibition in assay [3] (IC50) was put at 13.1 nM.

Compound `COc1cc(O)c(C(=O)N[C@@H](Cc2ccccc2)[C@H](O)CN(C[C@@H](C)O)S(=O)(=O)c2ccc([N+](=O)[O-])cc2)cc1OC` had an IC50 in assay [3] of 102 nM. For `C[C@@H](O)CN(C[C@@H](O)[C@H](Cc1ccccc1)NC(=O)c1cc(O)cc(O)c1)S(=O)(=O)c1ccc([N+](=O)[O-])cc1`, the “inhibition (INH)” value in assay [4] is reported as 42%; in assay [6] it was 58%. In addition, the “Selectivity Index” value in assay [5] is listed as 1.38. Moreover, half-maximal inhibition in assay [3] (IC50) was put at 4.83 nM. Consider `COc1cc(O)c(C(=O)N[C@@H](Cc2ccccc2)[C@H](O)CN(C[C@H](C)O)S(=O)(=O)c2ccc(C(F)(F)F)cc2)cc1OC`, for which it took 284 nM to reach half-maximal inhibition in assay [3] (IC50). Take `C[C@H](O)CN(C[C@@H](O)[C@H](Cc1ccccc1)NC(=O)c1ccccc1O)S(=O)(=O)c1ccc([N+](=O)[O-])cc1`: in assay [3], the IC50 came to 78.2 nM.

The compound `COc1cc(O)c(C(=O)N[C@@H](Cc2ccccc2)[C@H](O)CN(C[C@@H](C)O)S(=O)(=O)c2ccc(C(F)(F)F)cc2)cc1OC` returned an IC50 in assay [3] of 61.4 nM. Consider `C[C@@H](O)CN(C[C@@H](O)[C@H](Cc1ccccc1)NC(=O)c1ccc(O)c(O)c1)S(=O)(=O)c1ccc(C(F)(F)F)cc1`, for which the “inhibition (INH)” value in assay [4] was determined as 46%; in assay [6] it was 66%. Further, in assay [5], the “Selectivity Index” value worked out at 1.43. For the same compound, half-maximal inhibition in assay [3] (IC50) required 1.64 nM. Turning to `COc1ccc(C(=O)N[C@@H](Cc2ccccc2)[C@H](O)CN(C[C@H](C)O)S(=O)(=O)c2ccc(C(F)(F)F)cc2)c(O)c1`, the IC50 in assay [3] is 187 nM. Consider `C[C@H](O)CN(C[C@@H](O)[C@H](Cc1ccccc1)NC(=O)c1ccc(O)c(O)c1)S(=O)(=O)c1ccc(C(F)(F)F)cc1`, for which inhibition in assay [3] was half-maximal at 6.53 nM (IC50). `C[C@H](O)CN(C[C@@H](O)[C@H](Cc1ccccc1)NC(=O)c1ccc(O)cc1O)S(=O)(=O)c1ccc(C(F)(F)F)cc1`: half-maximal inhibition in assay [3] (IC50) was put at 40.6 nM. The compound `COc1ccc(C(=O)N[C@@H](Cc2ccccc2)[C@H](O)CN(C[C@H](C)O)S(=O)(=O)c2ccc([N+](=O)[O-])cc2)c(O)c1` returned a concentration for half-maximal inhibition (IC50) in assay [3] of 505 nM. In assay [3], `COc1cc(C(=O)N[C@@H](Cc2ccccc2)[C@H](O)CN(C[C@H](C)O)S(=O)(=O)c2ccc([N+](=O)[O-])cc2)cc(OC)c1O` yielded an IC50 of 75.8 nM.

Consider `C[C@@H](O)CN(C[C@@H](O)[C@H](Cc1ccccc1)NC(=O)c1cc(O)cc(O)c1)S(=O)(=O)c1ccc(C(F)(F)F)cc1`, for which the “inhibition (INH)” value in assay [4] stood at 51%; in assay [6], 76%. Besides, the “Selectivity Index” value in assay [5] turned out to be 1.49. For the same compound, in assay [3], it took 2.33 nM to reach half-maximal inhibition (IC50). In turn, `C[C@@H](O)CN(C[C@@H](O)[C@H](Cc1ccccc1)NC(=O)c1ccc(O)cc1O)S(=O)(=O)c1ccc(C(F)(F)F)cc1` came in with an IC50 in assay [3] of 12.3 nM. `C[C@@H](O)CN(C[C@@H](O)[C@H](Cc1ccccc1)NC(=O)c1ccc(O)cc1O)S(=O)(=O)c1ccc([N+](=O)[O-])cc1` yielded an IC50 in assay [3] of 13.4 nM.
